Measurements published in ChEMBL document CHEMBL3272053, “(exo, exo)-2-Aryltropane-3-carboxylic esters, hypoglycemic agents with accompanying analgesic activity” (J Med Chem, 1978).

Assays:
[1] = test system: Rattus norvegicus; test: Narcotic analgesic activity in po dosed fasted Sprague-Dawley rat measured at 15 mins by D'Amour-Smith tail-flick test; type: functional; settings: 0.25 h
[2] = test system: Rattus norvegicus; test: Narcotic analgesic activity in po dosed fasted Sprague-Dawley rat measured at 60 mins by D'Amour-Smith tail-flick test; type: functional; settings: Rattus norvegicus, Sprague-Dawley, Tail, po, 1 h; read-out: ED50
[3] = test system: Rattus norvegicus; test: Narcotic analgesic activity in sc dosed fed Sprague-Dawley rat measured at 30 mins by D'Amour-Smith tail-flick test; type: functional
[4] = test system: Mus musculus; test: Analgesic activity in sc dosed Swiss-Webster mouse assessed as reduction of acetylcholine-induced writhing; type: functional; settings: Mus musculus, Swiss-Webster, sc; read-out: ED50
[5] = test system: Mus musculus; test: Analgesic activity in po dosed Swiss-Webster mouse assessed as reduction of acetylcholine-induced writhing; type: functional
[6] = Drug metabolism in glucose loaded Sprague-Dawley rat urine assessed as formation of (7)- (exo,exo)-methyl 2-(thiophen-2-yl)-8-azabicyclo[3.2.1]octane-3-carboxylate hydrochloride at 20 mg, po administered 3 to 6 hrs measured for 24 hrs by TLC/mass spectrographic analysis; type: ADME, organism-based; settings: in vivo
[7] = test system: Rattus norvegicus; test: Toxicity in Sprague-Dawley rat assessed as severe convulsion at 240 mg/kg, sc; type: organism-based; parameters: dose 240 mg/kg, route subcutaneous; settings: in vivo
[8] = test system: Mus musculus; test: Toxicity in Swiss-Webster mouse assessed as mortality at 75 mg/kg, sc; type: organism-based; parameters: dose 75 mg/kg, route subcutaneous; settings: in vivo
[9] = test system: Rattus norvegicus; test: Toxicity in Sprague-Dawley rat assessed as induction of physical dependence by measuring occurrence of abstinence signs administered as infusion at 0.3 log interval doses up to maximum tolerated dose 800 mg/kg/24 hrs, ip for 6 days prior to abrupt withdrawal; type: organism-based; parameters: route intraperitoneal; settings: in vivo
[10] = test system: Rattus norvegicus; test: Toxicity in Sprague-Dawley rat assessed as induction of physical dependence by measuring occurrence of abstinence signs at 100 mg/kg/24 hrs, ip administered as 2 days of infusion prior to naloxone-precipitated withdrawal; type: organism-based; parameters: route intraperitoneal; settings: in vivo
[11] = test system: Rattus norvegicus; test: Toxicity in Sprague-Dawley rat assessed as induction of morphine physical dependence by measuring occurrence of abstinence signs at 32 times of morphine dose 12.5 mg/kg/24 hrs administered on day 6 post morphine withdrawal; type: organism-based; settings: in vivo
[12] = test system: Rattus norvegicus; test: Toxicity in po dosed Sprague-Dawley rat assessed as catalepsy administered 15 mins prior to testing; type: organism-based; settings: in vivo, 0.25 h
[13] = test system: Rattus norvegicus; test: Toxicity in Sprague-Dawley rat assessed as catalepsy at 32 mg/kg, po administered 15 mins prior to testing in presence of naloxone hydrochloride; type: organism-based; parameters: dose 32 mg/kg, route oral; settings: in vivo, 0.25 h
[14] = test system: Rattus norvegicus; test: Toxicity in Sprague-Dawley rat assessed as catalepsy at 32 mg/kg, po administered 15 mins prior to testing; type: organism-based; parameters: dose 32 mg/kg, route oral; settings: in vivo, 0.25 h
[15] = test system: Rattus norvegicus; test: Toxicity in morphine-treated Sprague-Dawley rat assessed as catalepsy at 32 mg/kg, po administered 15 mins prior to testing; type: organism-based; parameters: dose 32 mg/kg, route oral; settings: in vivo, 0.25 h
[16] = test system: Mus musculus; test: Toxicity in po dosed Swiss-Webster mouse assessed as stimulation of straub tail after 15 to 25 mins; type: organism-based; settings: in vivo
[17] = test system: Mus musculus; test: Toxicity in naloxone hydrochloride-treated Swiss-Webster mouse assessed as stimulation of straub tail at 300 mg/kg, po after 15 to 25 mins; type: organism-based; parameters: dose 300 mg/kg, route oral; settings: in vivo
[18] = test system: Canis familiaris; test: Toxicity in dog assessed as reduction of pulmonary ventilation rate at 100 mg/kg, im measured within 20 mins relative to control; type: organism-based, Canis lupus familiaris; parameters: dose 100 mg/kg, route intramuscular; scale not given: the % may be the effect or the level left; settings: in vivo
[19] = test system: Canis familiaris; test: Toxicity in nalorphine-treated dog assessed as reduction of pulmonary ventilation rate at 100 mg/kg, im measured within 1 min; type: organism-based, Canis lupus familiaris; parameters: dose 100 mg/kg, route intramuscular; settings: in vivo
[20] = test system: Canis familiaris; test: Toxicity in dog assessed as effect on pulmonary ventilation rate at 150 mg/kg, im measured after 4 hrs; type: organism-based, Canis lupus familiaris; parameters: dose 150 mg/kg, route intramuscular; settings: in vivo
[21] = test system: Canis familiaris; test: Toxicity in dog assessed as reduction of pulmonary ventilation rate at 100 mg/kg, im measured within 5 mins; type: organism-based, Canis lupus familiaris; parameters: dose 100 mg/kg, route intramuscular; scale not given: the % may be the effect or the level left; settings: in vivo
[22] = test system: Canis familiaris; test: Toxicity in dog assessed as stopped breathing at 100 mg/kg, im measured after 3 mins; type: organism-based, Canis lupus familiaris; parameters: dose 100 mg/kg, route intramuscular; settings: in vivo, 0.05 h
[23] = test system: Canis familiaris; test: Toxicity in nalorphine-treated dog assessed as reduction of pulmonary ventilation rate at 100 mg/kg, im measured within 5 mins; type: organism-based, Canis lupus familiaris; parameters: dose 100 mg/kg, route intramuscular; settings: in vivo
[24] = test system: Canis familiaris; test: Toxicity in nalorphine-treated dog assessed as stopped breathing at 100 mg/kg, im measured after 3 mins; type: organism-based, Canis lupus familiaris; parameters: dose 100 mg/kg, route intramuscular; settings: in vivo, 0.05 h
[25] = test system: Canis familiaris; test: Toxicity in dog assessed as respiratory depression at 150 mg/kg, im; type: organism-based, Canis lupus familiaris; parameters: dose 150 mg/kg, route intramuscular; settings: in vivo
[26] = test system: Rattus norvegicus; test: Hypoglycemic activity in fasted Sprague-Dawley rat assessed as reduction of blood glucose level at 88 mg/kg, po measured at 0.5 hrs relative to control; type: functional; parameters: scale not given: the % may be the effect or the level left
[27] = test system: Rattus norvegicus; test: Hypoglycemic activity in fasted Sprague-Dawley rat assessed as reduction of blood glucose level at 88 mg/kg, po measured at 1 hr relative to control; type: functional; parameters: scale not given: the % may be the effect or the level left
[28] = test system: Rattus norvegicus; test: Hypoglycemic activity in fasted Sprague-Dawley rat assessed as reduction of blood glucose level at 88 mg/kg, po measured at 1.5 hrs relative to control; type: functional; parameters: scale not given: the % may be the effect or the level left
[29] = test system: Rattus norvegicus; test: Hypoglycemic activity in fasted Sprague-Dawley rat assessed as reduction of blood glucose level at 88 mg/kg, po measured at 2 hrs relative to control; type: functional; parameters: scale not given: the % may be the effect or the level left
[30] = test system: Rattus norvegicus; test: Hypoglycemic activity in fasted Sprague-Dawley rat assessed as reduction of blood glucose level at 50 mg/kg, po measured at 0.5 hrs relative to control; type: functional; parameters: scale not given: the % may be the effect or the level left
[31] = test system: Rattus norvegicus; test: Hypoglycemic activity in fasted Sprague-Dawley rat assessed as reduction of blood glucose level at 50 mg/kg, po measured at 1 hr relative to control; type: functional; parameters: scale not given: the % may be the effect or the level left
[32] = test system: Rattus norvegicus; test: Hypoglycemic activity in fasted Sprague-Dawley rat assessed as reduction of blood glucose level at 50 mg/kg, po measured at 1.5 hrs relative to control; type: functional; parameters: scale not given: the % may be the effect or the level left
[33] = test system: Rattus norvegicus; test: Hypoglycemic activity in fasted Sprague-Dawley rat assessed as reduction of blood glucose level at 50 mg/kg, po measured at 2 hrs relative to control; type: functional; parameters: scale not given: the % may be the effect or the level left
[34] = test system: Rattus norvegicus; test: Hypoglycemic activity in glucose loaded Sprague-Dawley rat assessed as reduction of blood glucose level at 88 mg/kg, po measured at 0.5 hrs relative to control; type: functional; parameters: scale not given: the % may be the effect or the level left
[35] = test system: Rattus norvegicus; test: Hypoglycemic activity in glucose loaded Sprague-Dawley rat assessed as reduction of blood glucose level at 88 mg/kg, po measured at 1 hr relative to control; type: functional; parameters: scale not given: the % may be the effect or the level left
[36] = test system: Rattus norvegicus; test: Hypoglycemic activity in glucose loaded Sprague-Dawley rat assessed as reduction of blood glucose level at 88 mg/kg, po measured at 1.5 hrs relative to control; type: functional; parameters: scale not given: the % may be the effect or the level left
[37] = test system: Rattus norvegicus; test: Hypoglycemic activity in glucose loaded Sprague-Dawley rat assessed as reduction of glucose level per 100 mL of blood at 88 mg/kg, po measured at 2 hrs (reference value: 99 +/- 2 mg/100 mL); type: functional
[38] = test system: Rattus norvegicus; test: Hypoglycemic activity in glucose loaded Sprague-Dawley rat assessed as reduction of glucose level per 100 mL of blood at 50 mg/kg, po measured at 0.5 hrs (reference value: 176 +/- 8 mg/100 mL); type: functional
[39] = test system: Rattus norvegicus; test: Hypoglycemic activity in glucose loaded Sprague-Dawley rat assessed as reduction of blood glucose level at 50 mg/kg, po measured at 1 hr relative to control; type: functional; parameters: scale not given: the % may be the effect or the level left
[40] = test system: Rattus norvegicus; test: Hypoglycemic activity in glucose loaded Sprague-Dawley rat assessed as reduction of blood glucose level at 50 mg/kg, po measured at 1.5 hrs relative to control; type: functional; parameters: scale not given: the % may be the effect or the level left
[41] = test system: Rattus norvegicus; test: Hypoglycemic activity in glucose loaded Sprague-Dawley rat assessed as reduction of blood glucose level at 50 mg/kg, po measured at 2 hrs relative to control; type: functional; parameters: scale not given: the % may be the effect or the level left
[42] = test system: Rattus norvegicus; test: Hypoglycemic activity in glucose/glycogen loaded Sprague-Dawley rat assessed as reduction of blood glucose level at 88 mg/kg, po measured at 0.5 hrs relative to control; type: functional; parameters: scale not given: the % may be the effect or the level left
[43] = test system: Rattus norvegicus; test: Hypoglycemic activity in glucose/glycogen loaded Sprague-Dawley rat assessed as reduction of blood glucose level at 88 mg/kg, po measured at 1 hr relative to control; type: functional; parameters: scale not given: the % may be the effect or the level left
[44] = test system: Rattus norvegicus; test: Hypoglycemic activity in glucose/glycogen loaded Sprague-Dawley rat assessed as reduction of blood glucose level at 88 mg/kg, po measured at 1.5 hrs relative to control; type: functional; parameters: scale not given: the % may be the effect or the level left
[45] = test system: Rattus norvegicus; test: Hypoglycemic activity in glucose/glycogen loaded Sprague-Dawley rat assessed as reduction of glucose level per 100 mL of blood at 88 mg/kg, po measured at 2 hrs (reference value: 102 +/- 7 mg/100 mL); type: functional
[46] = test system: Rattus norvegicus; test: Hypoglycemic activity in Sprague-Dawley rat assessed as reduction of blood glucose level at 88 mg/kg, po by glucagon-impaired glucose disposal test relative to control; type: functional; parameters: scale not given: the % may be the effect or the level left; settings: 88 mg/kg

COC(=O)[C@H]1C[C@H]2CC[C@H]([C@H]1c1cccs1)N2C.Cl (racemic)
ED50 [1]: 29 mg/kg | ED50 [2]: 83 mg/kg | ED50 [3]: 100 mg/kg | ED50 [4]: 12 mg/kg | ED50 [5]: 35 mg/kg | Drug metabolism [6]: metabolite_detected | Activity [7]: Toxic | Activity [8]: Non-toxic | Activity [9]: Non-toxic | Activity [10]: Non-toxic | Activity [11]: Non-toxic | ED50 [12]: 18.6 mg/kg | Activity [13]: Non-toxic | Activity [14]: 65% | Activity [15]: 20% | ED50 [16]: 138 mg/kg | Activity [17]: Non-toxic | Activity [18]: 40% | Activity [19]: Non-toxic | Activity [20]: Non-toxic | Activity [21]: 65% | Activity [22]: Non-toxic | Activity [23]: Non-toxic | Activity [24]: Non-toxic | Activity [25]: Non-toxic | Activity [26]: 45% | Activity [27]: 38% | Activity [28]: 27% | Activity [29]: 24% | Activity [30]: 34% | Activity [31]: 40% | Activity [32]: 43% | Activity [33]: 37% | Activity [34]: 55% | Activity [35]: 55% | Activity [36]: 32% | Activity [37]: 100 mg | Activity [38]: 172 mg | Activity [39]: 40% | Activity [40]: 53% | Activity [41]: 50% | Activity [42]: 62% | Activity [43]: 38% | Activity [44]: 22% | Activity [45]: 104 mg | Activity [46]: 63%
